Assay results: BindingDB's records for doi:10.1021/jm9911229 (University of Ferrara, 2000)
Structures can show the parent of a compound that is named as a salt.

Test: Tested for 50% inhibition of generation of Human Ha-ras polymerase chain reaction(PCR) products

SMILES | IC50 [nM]
Cn1cc(NC(=O)c2cc(NC(=O)c3cc(NC(=O)c4cc5cc(N(CCCl)CCCl)ccc5n4C)cn3C)cn2C)cc1C(=O)NCCC(=N)N [5-[Bis-(2-chloro-ethyl)-amino]-1-methyl-1H-indole-2-carboxylic acid (5-{5-[5-(2-carbamimidoyl-ethylcarbamoyl)-1-methyl-1H-pyrrol-3-ylcarbamoyl]-1-methyl-1H-pyrrol-3-ylcarbamoyl}-1-methyl-1H-pyrrol-3-yl)-amide; hydrochloride] | 20
Cn1cc(NC(=O)c2cc(NC(=O)c3cc(NC(=O)c4cc5cc(N(CCCl)CCCl)ccc5o4)cn3C)cn2C)cc1C(=O)NCCC(=N)N [5-[Bis-(2-chloro-ethyl)-amino]-benzofuran-2-carboxylic acid (5-{5-[5-(2-carbamimidoyl-ethylcarbamoyl)-1-methyl-1H-pyrrol-3-ylcarbamoyl]-1-methyl-1H-pyrrol-3-ylcarbamoyl}-1-methyl-1H-pyrrol-3-yl)-amide; hydrochloride] | 15
Cn1cc(NC(=O)c2cc(NC(=O)c3cc(NC(=O)c4nc5ccc(NC(=O)c6ccc(N(CCCl)CCCl)cc6)cc5[nH]4)cn3C)cn2C)cc1C(=O)NCCC(=N)N [5-{4-[Bis-(2-chloro-ethyl)-amino]-benzoylamino}-1H-benzoimidazole-2-carboxylic acid (5-{5-[5-(2-carbamimidoyl-ethylcarbamoyl)-1-methyl-1H-pyrrol-3-ylcarbamoyl]-1-methyl-1H-pyrrol-3-ylcarbamoyl}-1-methyl-1H-pyrrol-3-yl)-amide; hydrochloride] | 15
Cn1cc(NC(=O)c2cc(NC(=O)c3cc(NC(=O)c4cc5cc(NC(=O)c6ccc(N(CCCl)CCCl)cc6)ccc5o4)cn3C)cn2C)cc1C(=O)NCCC(=N)N [5-{4-[Bis-(2-chloro-ethyl)-amino]-benzoylamino}-benzofuran-2-carboxylic acid (5-{5-[5-(2-carbamimidoyl-ethylcarbamoyl)-1-methyl-1H-pyrrol-3-ylcarbamoyl]-1-methyl-1H-pyrrol-3-ylcarbamoyl}-1-methyl-1H-pyrrol-3-yl)-amide; hydrochloride] | 15
Cn1cc(NC(=O)c2cc(NC(=O)c3cc(NC(=O)c4cc5cc(NC(=O)c6ccc(N(CCCl)CCCl)cc6)ccc5n4C)cn3C)cn2C)cc1C(=O)NCCC(=N)N [5-{4-[Bis-(2-chloro-ethyl)-amino]-benzoylamino}-1-methyl-1H-indole-2-carboxylic acid (5-{5-[5-(2-carbamimidoyl-ethylcarbamoyl)-1-methyl-1H-pyrrol-3-ylcarbamoyl]-1-methyl-1H-pyrrol-3-ylcarbamoyl}-1-methyl-1H-pyrrol-3-yl)-amide; hydrochloride] | 15
Cn1cc(NC(=O)c2cc(NC(=O)c3cc(NC(=O)c4cc5cc(NC(=O)c6ccc(N(CCCl)CCCl)cc6)ccc5[nH]4)cn3C)cn2C)cc1C(=O)NCCC(=N)N [5-{4-[Bis-(2-chloro-ethyl)-amino]-benzoylamino}-1H-indole-2-carboxylic acid (5-{5-[5-(2-carbamimidoyl-ethylcarbamoyl)-1-methyl-1H-pyrrol-3-ylcarbamoyl]-1-methyl-1H-pyrrol-3-ylcarbamoyl}-1-methyl-1H-pyrrol-3-yl)-amide; hydrochloride] | 15
Cn1cc(NC(=O)c2cc(NC(=O)c3cc(NC(=O)c4cc5cc(N(CCCl)CCCl)ccc5[nH]4)cn3C)cn2C)cc1C(=O)NCCC(=N)N [5-[Bis-(2-chloro-ethyl)-amino]-1H-indole-2-carboxylic acid (5-{5-[5-(2-carbamimidoyl-ethylcarbamoyl)-1-methyl-1H-pyrrol-3-ylcarbamoyl]-1-methyl-1H-pyrrol-3-ylcarbamoyl}-1-methyl-1H-pyrrol-3-yl)-amide; hydrochloride] | 20
